{"source": "patent US5770573A", "about": "“CS-1 peptidomimetics, compositions and methods of using the same” (Cytel Corporation, priority 1995, dated 1998)", "note": "Square brackets hold non-standard residues; d marks the D form. Peptide text beside a SMILES is read from it. * marks the point of attachment. NHOctadecyl = CCCCCCCCCCCCCCCCCCN*; NMeF = CN[C@@H](Cc1ccccc1)C(=O)O; Cha = N[C@@H](CC1CCCCC1)C(=O)O; NMeD = CN[C@@H](CC(=O)O)C(=O)O; NMeL = CN[C@@H](CC(C)C)C(=O)O; X8 = CCCCCCCCCCCCCCCCCCO*; Nle = CCCC[C@H](N)C(=O)O; NHDecyl = CCCCCCCCCCN*; PhAc = O=C(Cc1ccccc1)*; ODecyl = CCCCCCCCCCO*; X1 = CCCCCCCCCCCCCCO*; Inp = O=C(O)C1CCNCC1; X4 = CCN(CC)C(=O)CO*; OBn = c1ccc(CO*)cc1; X5 = CCCCCCCCCCCCO*; Ahx = NCCCCCC(=O)O; Sar = CNCC(=O)O", "data": [{"molecular_target": "VLA-4 (Homo sapiens, UniProt P05556+P13612)", "sequence (P13612 34-1032)": "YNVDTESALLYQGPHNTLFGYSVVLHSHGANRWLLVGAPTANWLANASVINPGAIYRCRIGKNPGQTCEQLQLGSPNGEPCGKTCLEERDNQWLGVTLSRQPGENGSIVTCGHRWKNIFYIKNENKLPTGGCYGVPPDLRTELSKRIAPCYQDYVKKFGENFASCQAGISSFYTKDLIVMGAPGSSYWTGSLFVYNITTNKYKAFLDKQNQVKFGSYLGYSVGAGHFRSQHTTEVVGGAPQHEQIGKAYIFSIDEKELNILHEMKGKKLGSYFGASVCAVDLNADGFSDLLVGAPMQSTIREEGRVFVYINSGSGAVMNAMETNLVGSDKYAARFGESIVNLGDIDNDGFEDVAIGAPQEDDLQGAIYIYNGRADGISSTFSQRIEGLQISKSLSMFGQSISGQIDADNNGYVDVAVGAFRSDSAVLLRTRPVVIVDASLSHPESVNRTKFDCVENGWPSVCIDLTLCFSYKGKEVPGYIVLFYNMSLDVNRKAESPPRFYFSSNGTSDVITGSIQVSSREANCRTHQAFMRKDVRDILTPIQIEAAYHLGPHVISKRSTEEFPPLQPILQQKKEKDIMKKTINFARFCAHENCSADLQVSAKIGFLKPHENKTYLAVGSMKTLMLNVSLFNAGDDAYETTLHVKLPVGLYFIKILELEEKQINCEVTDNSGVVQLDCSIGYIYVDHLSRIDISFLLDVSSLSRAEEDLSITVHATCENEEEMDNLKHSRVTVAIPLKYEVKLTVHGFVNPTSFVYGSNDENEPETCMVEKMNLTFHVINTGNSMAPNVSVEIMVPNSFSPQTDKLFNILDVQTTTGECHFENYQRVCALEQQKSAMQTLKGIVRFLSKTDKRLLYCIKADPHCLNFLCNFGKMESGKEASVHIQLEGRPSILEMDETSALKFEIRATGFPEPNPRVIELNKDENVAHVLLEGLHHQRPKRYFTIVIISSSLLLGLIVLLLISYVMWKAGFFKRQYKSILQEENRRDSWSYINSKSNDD", "sequence (P05556 21-798)": "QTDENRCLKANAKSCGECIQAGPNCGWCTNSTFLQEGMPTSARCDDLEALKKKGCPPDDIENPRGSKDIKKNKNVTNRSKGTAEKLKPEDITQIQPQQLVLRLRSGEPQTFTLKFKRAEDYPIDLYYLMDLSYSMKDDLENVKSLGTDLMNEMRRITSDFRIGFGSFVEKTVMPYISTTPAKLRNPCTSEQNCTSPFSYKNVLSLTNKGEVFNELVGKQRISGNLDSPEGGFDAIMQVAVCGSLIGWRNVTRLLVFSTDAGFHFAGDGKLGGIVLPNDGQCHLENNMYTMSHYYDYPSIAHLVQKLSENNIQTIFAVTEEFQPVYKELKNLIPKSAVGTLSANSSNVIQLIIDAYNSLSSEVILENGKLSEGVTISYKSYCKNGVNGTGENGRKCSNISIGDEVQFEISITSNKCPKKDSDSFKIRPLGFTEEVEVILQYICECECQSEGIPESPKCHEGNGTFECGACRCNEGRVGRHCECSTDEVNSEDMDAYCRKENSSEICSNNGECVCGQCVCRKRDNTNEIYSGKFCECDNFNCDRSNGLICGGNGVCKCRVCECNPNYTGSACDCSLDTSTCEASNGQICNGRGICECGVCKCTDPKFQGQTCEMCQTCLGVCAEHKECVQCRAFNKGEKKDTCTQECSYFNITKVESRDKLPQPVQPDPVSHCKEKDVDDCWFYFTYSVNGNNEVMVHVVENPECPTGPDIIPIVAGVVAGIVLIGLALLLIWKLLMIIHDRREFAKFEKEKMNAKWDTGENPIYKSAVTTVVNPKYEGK", "test": "In vitro binding inhibition of 51Cr-labeled Jurkat cells to solid phase-bound CS-1 compound (SEQ ID NO:1)", "format": "cell-based", "design": "inflammatory cells that contain the VLA-4 receptor [Jurkat cells; host or cells: Jurkat (human T lymphoblastic line)", "details": "binding inhibition potency relative to standard compound of SEQ ID NO:3 = 1 (normalized IC50); about one-tenth or less assigned zero", "in_short": "(§1)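 51Cr-labeled human Jurkat cells were preincubated with compound 30 min at about 22° C, then allowed to bind to wells coated with CS-1 peptide or CS-1-OVA for 30 min at 37° C. After washing, bound cells were lysed with SDS and counted. IC50 is the concentration halving binding, normalized to SEQ ID NO: 3.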", "values": [{"smiles": "CC(C)C[C@H](NC(=O)Cc1ccccc1)C(=O)N[C@@H](CC(=O)O)C(=O)N[C@@H](Cc1ccccc1)C(=O)N1C[C@@H](O)[C@@H](O)C1", "note": "[1070.01]", "Relative Potency": 194}, {"smiles": "Cc1ccc(S(=O)(=O)N2CCN(C(=O)[C@H](Cc3ccccc3)NC(=O)[C@H](CC(=O)O)NC(=O)[C@H](CC(C)C)NC(=O)Cc3ccccc3)CC2)cc1", "note": "[1111.01]", "Relative Potency": 363}, {"smiles": "CC(C)C[C@H](NC(=O)Cc1ccccc1)C(=O)N[C@@H](CC(=O)O)C(=O)N[C@@H](Cc1ccccc1)C(=O)N1CCSCC1", "note": "[1111.02]", "Relative Potency": 450}, {"smiles": "CC(C)C[C@H](NC(=O)Cc1ccccc1)C(=O)N[C@@H](CC(=O)O)C(=O)N[C@@H](Cc1ccccc1)C(=O)N1CCS(=O)(=O)CC1", "note": "[1111.03]", "Relative Potency": 1010}, {"smiles": "CC(C)C[C@H](NC(=O)Cc1ccccc1)C(=O)N[C@@H](CC(=O)O)C(=O)N[C@@H](Cc1ccccc1)C(=O)N1CCC(C(=O)O)CC1", "note": "[1111.04] (PhAc-LDF[Inp]-OH)", "Relative Potency": 836}, {"smiles": "CC(C)C[C@H](NC(=O)Cc1ccccc1)C(=O)N[C@@H](CC(=O)O)C(=O)N[C@@H](Cc1ccccc1)C(=O)N1CCC(C(N)=O)CC1", "note": "[1111.05] (PhAc-LDF[Inp]-NH2)", "Relative Potency": 942}, {"smiles": "CC(C)C[C@H](NC(=O)Cc1ccccc1)C(=O)N[C@@H](CC(=O)O)C(=O)N[C@@H](Cc1ccccc1)C(=O)N1CCN(CCOCCO)CC1", "note": "[1111.07]", "Relative Potency": 510}, {"smiles": "CC(C)C[C@H](NC(=O)Cc1ccccc1)C(=O)N[C@@H](CC(=O)O)C(=O)N[C@@H](Cc1ccccc1)C(=O)N1CC[N+](C)(C)CC1", "note": "[1111.08]", "Relative Potency": 218}, {"smiles": "CC(C)C[C@H](NC(=O)Cc1ccccc1)C(=O)N[C@@H](CC(=O)O)C(=O)N[C@@H](Cc1ccccc1)C(=O)N1CCN(CC(N)=O)CC1", "note": "[1111.09]", "Relative Potency": 324}, {"smiles": "CC(C)C[C@H](NC(=O)Cc1ccccc1)C(=O)N[C@@H](CC(=O)O)C(=O)N[C@@H](Cc1ccccc1)C(=O)NN1CCOCC1", "note": "[1111.10]", "Relative Potency": 98.9}, {"smiles": "NC(=O)[C@H]1CCCN1C(=O)[C@H](Cc1ccccc1)NC(=O)[C@H](CC(=O)O)NC(=O)[C@H](CC1CCCCC1)NC(=O)Cc1ccccc1", "note": "[1160.01] (PhAc-[Cha]DF[dP]-NH2)", "Relative Potency": 213}, {"smiles": "CCCC[C@H](NC(=O)Cc1ccccc1)C(=O)N[C@@H](CC(=O)O)C(=O)N[C@@H](Cc1ccccc1)C(=O)N1CCC[C@@H]1C(N)=O", "note": "[1160.02] (PhAc-[Nle]DF[dP]-NH2)", "Relative Potency": 49}, {"smiles": "CC(C)C[C@H](NC(=O)Cc1ccccc1)C(=O)N[C@@H](CC(=O)O)C(=O)N[C@@H](Cc1ccccc1)C(=O)N1CCC(CC(=O)O)CC1", "note": "[1190.02]", "Relative Potency": 591}, {"smiles": "CC(C)C[C@H](NC(=O)Cc1ccccc1)C(=O)N[C@@H](CC(=O)O)C(=O)N[C@@H](Cc1ccccc1)C(=O)N1CCN(CCC(=O)O)CC1", "note": "[1190.03]", "Relative Potency": 998}, {"smiles": "CC(C)C[C@H](NC(=O)Cc1ccccc1)C(=O)N[C@@H](CC(=O)O)C(=O)N[C@@H](Cc1ccccc1)C(=O)N(C)CC(N)=O", "note": "[1190.04] (PhAc-LDF[Sar]-NH2)", "Relative Potency": 196}, {"smiles": "CC(C)C[C@H](NC(=O)Cc1ccccc1)C(=O)N[C@@H](CC(=O)O)C(=O)N(C)[C@@H](Cc1ccccc1)C(=O)N1CCC[C@@H]1C(N)=O", "note": "[1190.05] (PhAc-LD[NMeF][dP]-NH2)", "Relative Potency": 0}, {"smiles": "CC(C)C[C@H](NC(=O)Cc1ccccc1)C(=O)N(C)[C@@H](CC(=O)O)C(=O)N[C@@H](Cc1ccccc1)C(=O)N1CCC[C@@H]1C(N)=O", "note": "[1190.06] (PhAc-L[NMeD]F[dP]-NH2)", "Relative Potency": 0}, {"smiles": "CC(C)C[C@@H](C(=O)N[C@@H](CC(=O)O)C(=O)N[C@@H](Cc1ccccc1)C(=O)N1CCC[C@@H]1C(N)=O)N(C)C(=O)Cc1ccccc1", "note": "[1190.07] (PhAc-[NMeL]DF[dP]-NH2)", "Relative Potency": 318}]}, {"molecular_target": "VLA-4 (Homo sapiens, UniProt P05556+P13612)", "test": "In vitro binding inhibition of 51Cr-labeled Jurkat cells to solid phase-bound CS-1 compound (SEQ ID NO:1)", "format": "cell-based", "design": "inflammatory cells that contain the VLA-4 receptor [Jurkat cells; host or cells: Jurkat (human T lymphoblastic line)", "details": "compared with standard 10-mer of SEQ ID NO:3", "in_short": "as §1", "values": [{"smiles": "CCCCCCCCCCCCCCCCCCNC(=O)CCCCCNC(=O)[C@@H]1CCCN1C(=O)[C@H](Cc1ccccc1)NC(=O)[C@H](CC(=O)O)NC(=O)[C@H](CC(C)C)NC(=O)Cc1ccccc1", "note": "[Compound ID No. 1068.01, phenylacetyl-Leu-Asp-Phe-Pro-NH(CH2)5 C(O)NHC18 H37] (PhAc-LDFP[Ahx]-NHOctadecyl)", "VLA-4 binding inhibition compared in words": "binding inhibition similar to that exhibited by the standard 10-mer compound"}]}, {"molecular_target": "VLA-4 (Homo sapiens, UniProt P05556+P13612)", "test": "In vitro binding inhibition of 51Cr-labeled Jurkat cells to solid phase-bound CS-1 compound (SEQ ID NO:1)", "format": "cell-based", "design": "inflammatory cells that contain the VLA-4 receptor [Jurkat cells; host or cells: Jurkat (human T lymphoblastic line)", "details": "relative to SEQ ID NO:3 = 1; potency before the prodrug compound is enzymatically converted to an active form", "in_short": "as §1", "values": [{"smiles": "CCCCCCCCCCCCCCCCCCNC(=O)CCCCCNC(=O)[C@@H]1CCCN1C(=O)[C@H](Cc1ccccc1)NC(=O)[C@H](CC(=O)O)NC(=O)[C@H](CC(C)C)NC(=O)Cc1ccccc1", "note": "[1068.01] (PhAc-LDFP[Ahx]-NHOctadecyl)", "Relative Potency (prodrug compound)": ".91"}, {"smiles": "CCCCCCCCCCNC(=O)[C@@H]1CCCN1C(=O)[C@H](Cc1ccccc1)NC(=O)[C@H](CC(=O)O)NC(=O)[C@H](CC(C)C)NC(=O)Cc1ccccc1", "note": "[1068.04] (PhAc-LDFP-NHDecyl)", "Relative Potency (prodrug compound)": 2.13}, {"smiles": "CCCCCCCCCCCCCCCCCC(=O)OC1CCN(C(=O)[C@H](Cc2ccccc2)NC(=O)[C@H](CC(=O)O)NC(=O)[C@H](CC(C)C)NC(=O)Cc2ccccc2)CC1", "note": "[1068.05]", "Relative Potency (prodrug compound)": ".63"}, {"smiles": "CCCCCCCCCC(=O)OC1CCN(C(=O)[C@H](Cc2ccccc2)NC(=O)[C@H](CC(=O)O)NC(=O)[C@H](CC(C)C)NC(=O)Cc2ccccc2)CC1", "note": "[1068.06]", "Relative Potency (prodrug compound)": ".63"}, {"smiles": "CC(C)C[C@H](NC(=O)Cc1ccccc1)C(=O)N[C@@H](CC(=O)OCc1ccccc1)C(=O)N[C@@H](Cc1ccccc1)C(=O)N1CCC[C@@H]1C(N)=O", "note": "[1068.07] (PhAc-LD(OBn)F[dP]-NH2)", "Relative Potency (prodrug compound)": 0}, {"smiles": "CCCCCCCCCCOC(=O)C[C@H](NC(=O)[C@H](CC(C)C)NC(=O)Cc1ccccc1)C(=O)N[C@@H](Cc1ccccc1)C(=O)N1CCC[C@@H]1C(N)=O", "note": "[1068.09] (PhAc-LD(ODecyl)F[dP]-NH2)", "Relative Potency (prodrug compound)": 0}, {"smiles": "CCCCCCCCCCCCOC(=O)C[C@H](NC(=O)[C@H](CC(C)C)NC(=O)Cc1ccccc1)C(=O)N[C@@H](Cc1ccccc1)C(=O)N1CCC[C@@H]1C(N)=O", "note": "[1068.10] (PhAc-LD(X5)F[dP]-NH2)", "Relative Potency (prodrug compound)": 0}, {"smiles": "CCCCCCCCCCCCCCOC(=O)C[C@H](NC(=O)[C@H](CC(C)C)NC(=O)Cc1ccccc1)C(=O)N[C@@H](Cc1ccccc1)C(=O)N1CCC[C@@H]1C(N)=O", "note": "[1068.11] (PhAc-LD(X1)F[dP]-NH2)", "Relative Potency (prodrug compound)": 0}, {"smiles": "CCCCCCCCCCCCCCCCCCOC(=O)C[C@H](NC(=O)[C@H](CC(C)C)NC(=O)Cc1ccccc1)C(=O)N[C@@H](Cc1ccccc1)C(=O)N1CCC[C@@H]1C(N)=O", "note": "[1068.12] (PhAc-LD(X8)F[dP]-NH2)", "Relative Potency (prodrug compound)": 0}, {"smiles": "CCN(CC)C(=O)COC(=O)C[C@H](NC(=O)[C@H](CC(C)C)NC(=O)Cc1ccccc1)C(=O)N[C@@H](Cc1ccccc1)C(=O)N1CCC[C@@H]1C(N)=O", "note": "[1068.13] (PhAc-LD(X4)F[dP]-NH2)", "Relative Potency (prodrug compound)": 0}, {"smiles": "CCOC(=O)C[C@H](NC(=O)[C@H](CC(C)C)NC(=O)Cc1ccccc1)C(=O)N[C@@H](Cc1ccccc1)C(=O)N1CCC[C@@H]1C(N)=O", "note": "[1190.01] (PhAc-LD(OEt)F[dP]-NH2)", "Relative Potency (prodrug compound)": 0}]}]}
